The record followed here is ChEMBL document CHEMBL1137173, “Synthesis of an unusual branched-chain sugar, 5-C-methyl-L-idopyranose for SAR studies of pyranmycins: implication for the future design of aminoglycoside antibiotics” (2004).

The term MIC denotes the lowest concentration found to suppress growth.

In one assay the test system is Escherichia coli. The assay is described as follows: Minimum inhibitory concentration required against Escherichia coli. In kind it is functional.
A further assay relates to Staphylococcus aureus. The assay is described as follows: Minimum inhibitory concentration required against Staphylococcus aureus. The format is functional.
In a further assay the test system is Ribosomal RNA A-site. Put plainly: Binding affinity towards decoding region at A-site of 16s rRNA. Also on record: unit not given here. In kind it is nucleic-acid assay.
[1] abbreviates: Staphylococcus aureus, read-out: MIC.
Setting [2] is: Escherichia coli, read-out: MIC.

Values after ≈ are worked out from the molar mass of the structure shown.

Turning to `C[C@@H]1O[C@@H](O[C@@H]2[C@H](O)[C@H](N)C[C@@H](N)[C@H]2O[C@H]2O[C@@H](CN)[C@@H](O)[C@H](O)[C@@H]2N)[C@@H](O)[C@@H](O)[C@@H]1O.Cl.Cl.Cl.Cl` (stereo in doubt; form 1), the minimum inhibitory concentration (MIC) with Escherichia coli was determined as 91 µM; in the assay on Staphylococcus aureus (setting [1]) it was 15 µM.
Take `NC[C@@H]1O[C@H](O[C@H]2[C@H](O[C@@H]3O[C@H](CN)[C@@H](O)[C@H](O)[C@@H]3O)[C@H](O)[C@H](N)C[C@H]2N)[C@@H](N)[C@@H](O)[C@@H]1O`: the Activity in the assay on Ribosomal RNA A-site is -394. Also, the MIC worked out at 9 µM (≈ 4.35 µg/mL) in the assay with Escherichia coli (setting [2]) and 2 µM (≈ 0.967 µg/mL) in the assay on Staphylococcus aureus (setting [1]).
For `NC[C@@H]1O[C@H](O[C@H]2[C@@H](O)[C@H](O[C@@H]3[C@@H](O)[C@H](N)C[C@H](N)[C@H]3O[C@H]3O[C@H](CN)[C@@H](O)[C@H](O)[C@H]3N)O[C@@H]2CO)[C@H](N)[C@@H](O)[C@@H]1O` [FRAMYCETIN], the Activity with Ribosomal RNA A-site was -474. In addition, the figures for the MIC in the assay with Escherichia coli (setting [2]) and with Staphylococcus aureus (setting [1]) were 2 µM (≈ 1.23 µg/mL) and 3 µM (≈ 1.84 µg/mL), respectively.
Regarding `C[C@@H]1O[C@@H](O[C@@H]2[C@H](O)[C@H](N)C[C@@H](N)[C@H]2O[C@H]2O[C@@H](CN)[C@@H](O)[C@H](O)[C@@H]2N)[C@@H](O)[C@@H](O)[C@@H]1O` (stereo in doubt; form 2), the Activity in the assay with Ribosomal RNA A-site was -314.
Turning to `C[C@@H]1O[C@@H](O[C@@H]2[C@H](O)[C@H](N)C[C@@H](N)[C@H]2O[C@H]2O[C@@H](CN)[C@@H](O)[C@H](O)[C@@H]2N)[C@@H](O)[C@@H](O)[C@@H]1O` (stereo in doubt; form 1), the Activity in the assay with Ribosomal RNA A-site is -320.
With `NC[C@@H]1O[C@H](O[C@H]2[C@H](O[C@@H]3OC(CO)(CO)[C@@H](O)[C@H](O)[C@@H]3O)[C@H](O)[C@H](N)C[C@H]2N)[C@@H](N)[C@@H](O)[C@@H]1O`, the Activity in the assay with Ribosomal RNA A-site is -315. Also, the MIC in the assay on Escherichia coli (setting [2]) is 22 µM (≈ 11.3 µg/mL); in the assay on Staphylococcus aureus (setting [1]), 7 µM (≈ 3.6 µg/mL).
Consider `C[C@]1(CO)O[C@@H](O[C@@H]2[C@H](O)[C@H](N)C[C@@H](N)[C@H]2O[C@H]2O[C@@H](CN)[C@@H](O)[C@H](O)[C@@H]2N)[C@@H](O)[C@@H](O)[C@@H]1O`, for which, in the assay on Ribosomal RNA A-site, the Activity was -318. Also, the MIC was 87 µM (≈ 43.4 µg/mL) with Escherichia coli (setting [2]) and 27 µM (≈ 13.5 µg/mL) in the assay on Staphylococcus aureus (setting [1]).
The compound `NC[C@@H]1O[C@H](O[C@H]2[C@H](O[C@@H]3O[C@H](CO)[C@@H](O)[C@H](O)[C@@H]3O)[C@H](O)[C@H](N)C[C@H]2N)[C@@H](N)[C@@H](O)[C@@H]1O` had an Activity in the assay with Ribosomal RNA A-site of -320. Besides, the MIC was determined as 11 µM (≈ 5.33 µg/mL) in the assay with Escherichia coli (setting [2]) and 3 µM (≈ 1.45 µg/mL) with Staphylococcus aureus (setting [1]).
Turning to `C[C@@H]1O[C@@H](O[C@@H]2[C@H](O)[C@H](N)C[C@@H](N)[C@H]2O[C@H]2O[C@@H](CN)[C@@H](O)[C@H](O)[C@@H]2N)[C@@H](O)[C@@H](O)[C@@H]1O.Cl.Cl.Cl.Cl` (stereo in doubt; form 2), the MIC in the assay on Escherichia coli was 19 µM; with Staphylococcus aureus, 13 µM.
